Consider 8 compounds from patent US4105659A, “1,2,3,4,5,6-Hexahydro-2,6-methano-3-benzazocines” (Sterling Drug Inc., priority 1964, dated 1978).

For this assay, the system named is analgesic effect of meperidine hydrochloride. The assay is described as follows: Antagonism of meperidine analgesia, modified D'Amour-Smith test. The note with it: for dosage of antagonist which reduced the analgesic effect of meperidine by approximately 50 per cent: subcutaneous, rats, lactic acid acid-addition salt, versus 60 mg./kg. meperidine hydrochloride; for ED50: Rattus norvegicus, read-out: dosage of antagonist which reduced the analgesic effect of meperidine by approximately 50 per cent.

Where two headings read alike, the source gives them in different places.

With `CC(C)=CCN1CC[C@@]2(C)c3cc(O)ccc3C[C@H]1C2C` (relative stereo) [4E (dextro), trans 1,2,3,4,5,6-hexahydro-3-(3-methyl-2-butenyl)-6,11-dimethyl-8-hydroxy-2,6-methano-3-benzazocine], the “dosage of antagonist which reduced the analgesic effect of meperidine by approximately 50 per cent” value was 13.0 mg/kg.
As for `CC(C)=CCN1CC[C@@]2(C)c3cc(O)ccc3C[C@@H]1[C@H]2C` (relative stereo) [4E (racemic), trans 1,2,3,4,5,6-hexahydro-3-(3-methyl-2-butenyl)-6,11-dimethyl-8-hydroxy-2,6-methano-3-benzazocine], the ED50 (sc) is 3.3 mg/kg.
`CC(C)=CCN1CC[C@@]2(C)c3cc(O)ccc3C[C@H]1C2C` (relative stereo) [4E (levo), trans 1,2,3,4,5,6-hexahydro-3-(3-methyl-2-butenyl)-6,11-dimethyl-8-hydroxy-2,6-methano-3-benzazocine]: the “dosage of antagonist which reduced the analgesic effect of meperidine by approximately 50 per cent” value was determined as 0.55 mg/kg.
As to `CC(C)=CCN1CC[C@@]2(C)c3cc(O)ccc3C[C@@H]1[C@@H]2C` (relative stereo) [4A (cyclohexylsulfamate), racemic cis 1,2,3,4,5,6-hexahydro-3-(3-methyl-2-butenyl)-6,11-dimethyl-8-hydroxy-2,6-methano-3-benzazocine], the ED50 (po) stood at 125 mg/kg.
For the compound “racemic cis 1,2,3,4,5,6-hexahydro-3-(3-methyl-2-butenyl)-6-ethyl-11-methyl-8-cyclopropanecarbonyloxy-2,6-methano-3-benzazocine hydrochloride [Example 7C]”, the “dosage of antagonist which reduced the analgesic effect of meperidine by approximately 50 per cent” value worked out at 0.0022 mg/kg.
Turning to `C=CCN1CC[C@@]2(CC)c3cc(OC(C)=O)ccc3C[C@@H]1[C@@H]2C` (relative stereo) [Example 1B, racemic cis 1,2,3,4,5,6-hexahydro-3-allyl-6-ethyl-11-methyl-8-acetoxy-2,6-methano-3-benzazocine], the ED50 (sc) was 0.027 mg/kg.
As to `CCC12CCN(CC=C(C)C)C(Cc3ccc(O)cc31)C2C` (stereo not drawn) [7D (levo cis), levo cis 1,2,3,4,5,6-hexahydro-(3-methyl-2-butenyl)-6-ethyl-11-methyl-8-hydroxy-2,6-methano-3-benzazocine], the “dosage of antagonist which reduced the analgesic effect of meperidine by approximately 50 per cent” value is 3.1 mg/kg.
Same read-out and setting: then `CCC12CCN(CC=C(C)C)C(Cc3ccc(O)cc31)C2C` (stereo not drawn) [7D (dextro cis), dextro cis 1,2,3,4,5,6-hexahydro-(3-methyl-2-butenyl)-6-ethyl-11-methyl-8-hydroxy-2,6-methano-3-benzazocine], with 19.5 mg/kg.
